# Test results as given in ChEMBL document CHEMBL1201862, “PubChem BioAssay data set” (2004).
# Activity calls are given as the source filed them.
# What was measured:
# [1] = target: Peroxisome proliferator-activated receptor gamma/Nuclear receptor coactivator 1 (Homo sapiens, UniProt P37231); experiment: TR-FRET dose response biochemical High Throughput Screening assay for agonists of the steroid receptor coactivator 1 (SRC-1) recruitment by the peroxisome proliferator-activated receptor gamma (PPAR gamma): non-selective agonists. [Related pubchem assays (depositor defined):AID1300, AID1808, AID504735, AID631]; assay type: protein assay
# [2] = target: Peroxisome proliferator-activated receptor gamma/Nuclear receptor coactivator 2 (Homo sapiens, UniProt P37231); experiment: (§1) TR-FRET dose response biochemical High Throughput Screening assay for agonists of the steroid receptor coactivator 2 (SRC-2) recruitment by the peroxisome proliferator-activated receptor gamma (PPAR gamma): non-selective agonists. [Related pubchem assays: 1297, 1032 ]; assay type: functional
# [3] = target: Peroxisome proliferator-activated receptor gamma/Nuclear receptor coactivator 3 (Homo sapiens, UniProt P37231); experiment: as §1, with “3 (SRC-3)” for “2 (SRC-2)”, “1301 (Confirmation screen.), 1048 (Primary screen.)]” for “1297, 1032 ]”; assay type: functional
# [4] = target: T1, High affinity choline transporter 1 (Homo sapiens, UniProt Q9GZV3); experiment: human choline transporter blockers, potency – cell-based, 5-point CRC, membrane potential dye, dose response (AID 504840); assay type: functional
# T1 sequence (Q9GZV3 whole entry): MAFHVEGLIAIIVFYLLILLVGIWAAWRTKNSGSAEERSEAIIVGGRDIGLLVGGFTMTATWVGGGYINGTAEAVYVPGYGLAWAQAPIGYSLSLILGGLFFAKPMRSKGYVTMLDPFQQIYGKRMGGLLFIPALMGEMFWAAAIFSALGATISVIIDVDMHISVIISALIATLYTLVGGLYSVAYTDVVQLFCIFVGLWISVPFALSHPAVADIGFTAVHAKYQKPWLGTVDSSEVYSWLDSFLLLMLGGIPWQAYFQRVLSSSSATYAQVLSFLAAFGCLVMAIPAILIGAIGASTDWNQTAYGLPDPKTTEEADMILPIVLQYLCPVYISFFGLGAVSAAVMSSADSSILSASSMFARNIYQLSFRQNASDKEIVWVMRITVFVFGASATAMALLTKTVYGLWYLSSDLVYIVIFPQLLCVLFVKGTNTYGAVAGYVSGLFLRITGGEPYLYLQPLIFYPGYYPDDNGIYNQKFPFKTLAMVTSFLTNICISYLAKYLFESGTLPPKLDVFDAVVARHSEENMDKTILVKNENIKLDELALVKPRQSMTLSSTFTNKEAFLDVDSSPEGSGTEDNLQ
# [5] = target: T2, Type-1 angiotensin II receptor (Homo sapiens, UniProt P30556); experiment: antagonism of angiotensin II type 1 receptor – cell-based, uHTS hits, selectivity assay for APJ receptor antagonist project, dose response (AID 463214); assay type: functional;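 note: antagonist potency against angiotensin II stimulated AT1 response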
# T2 sequence (P30556 whole entry): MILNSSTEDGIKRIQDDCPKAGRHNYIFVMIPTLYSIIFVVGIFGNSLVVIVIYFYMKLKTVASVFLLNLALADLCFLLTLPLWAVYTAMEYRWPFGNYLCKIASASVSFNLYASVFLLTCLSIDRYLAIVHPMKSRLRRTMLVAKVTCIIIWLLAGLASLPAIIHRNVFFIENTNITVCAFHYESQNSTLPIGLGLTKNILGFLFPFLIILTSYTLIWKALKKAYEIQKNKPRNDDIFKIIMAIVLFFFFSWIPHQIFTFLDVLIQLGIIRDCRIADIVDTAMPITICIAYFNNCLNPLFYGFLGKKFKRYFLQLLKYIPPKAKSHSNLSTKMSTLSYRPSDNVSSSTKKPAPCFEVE
# [6] = target: T3, RNA-binding protein pos-1 (Caenorhabditis elegans, UniProt G5EF15); experiment: disruptors of C. elegans POS-1 RNA interaction – biochemical, fluorescence polarization, dose response (AID 1964);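 note: purified POS-1 fused to maltose binding protein made in E. coli; potency of compounds blocking POS-1 binding to fluorescent RNA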
# T3 sequence (G5EF15 whole entry): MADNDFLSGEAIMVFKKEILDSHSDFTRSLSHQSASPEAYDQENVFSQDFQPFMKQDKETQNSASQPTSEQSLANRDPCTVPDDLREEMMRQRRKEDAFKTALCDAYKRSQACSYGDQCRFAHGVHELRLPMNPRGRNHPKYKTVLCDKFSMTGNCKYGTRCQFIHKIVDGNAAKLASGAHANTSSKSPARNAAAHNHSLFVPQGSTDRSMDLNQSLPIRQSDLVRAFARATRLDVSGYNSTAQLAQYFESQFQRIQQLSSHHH
# Beta-galactosidase = Beta-galactosidase (Escherichia coli, UniProt Q8VNN2); experiment: PubChem AID 485352; assay type: functional
# [7] = target: T4, Zinc finger protein mex-5 (Caenorhabditis elegans, UniProt Q9XUB2); experiment: potency of MEX-5 RNA-binding blockers – biochemical, C. elegans, fluorescence polarization, dose response (AID 1960)
# T4 sequence (Q9XUB2 whole entry): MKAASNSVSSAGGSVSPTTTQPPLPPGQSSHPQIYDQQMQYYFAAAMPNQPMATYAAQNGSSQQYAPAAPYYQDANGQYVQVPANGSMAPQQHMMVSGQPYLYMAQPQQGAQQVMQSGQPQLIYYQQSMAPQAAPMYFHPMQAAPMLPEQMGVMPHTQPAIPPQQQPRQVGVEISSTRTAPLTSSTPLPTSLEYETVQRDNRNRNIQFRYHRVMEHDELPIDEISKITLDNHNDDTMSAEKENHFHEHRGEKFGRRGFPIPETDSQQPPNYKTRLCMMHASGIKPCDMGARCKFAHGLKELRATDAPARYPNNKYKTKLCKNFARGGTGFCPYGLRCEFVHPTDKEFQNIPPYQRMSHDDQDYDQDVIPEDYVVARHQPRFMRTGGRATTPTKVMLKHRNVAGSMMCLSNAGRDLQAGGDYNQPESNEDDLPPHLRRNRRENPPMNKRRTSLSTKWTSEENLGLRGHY
# [8] = Trypanosoma cruzi growth suppression in host cells – NIH3T3 host cells, beta-gal luminescence, confirmation (AID 2044); assay type: functional, cell-based;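 note: intracellular parasites grown in NIH/3T3 mouse fibroblasts as host cells; luminescent beta-galactosidase reporter signal from transgenic T. cruzi replicating inside host cells; inhibitors lower the luminescence signal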
# [9] = NIH3T3 cell viability loss – ATP luminescence, mouse fibroblasts, counter-screen, dose response (AID 2010); assay type: functional, cell-based;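 note: cells exposed to compound for about 90 hours before reading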
# [10] = target: Glucose-6-phosphate 1-dehydrogenase (Homo sapiens, UniProt P11413); experiment: inhibition of Homo sapiens G6PD, dose series – biochemical, fluorescence, selectivity assay for P. falciparum G6PD inhibitor project, dose response (AID 504792); assay type: functional
# [11] = NIH-3T3 fibroblast cytotoxicity, dose response, cytotoxicity control, cell-based, fluorescence, Alamar Blue, secondary assay (AID 2327); assay type: functional;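 note: NIH-3T3 mouse fibroblasts cultured with fluconazole at 8 µg/mL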
# [12] = target: T5, Short transient receptor potential channel 4 (Mus musculus, UniProt Q9QUQ5); experiment: calcium entry via TRPC4 opening agents – cell-based, HEK293 TRPC4/mu-opioid, Fluo-4 calcium, dose response (AID 434937); assay type: functional
# T5 sequence (Q9QUQ5 whole entry): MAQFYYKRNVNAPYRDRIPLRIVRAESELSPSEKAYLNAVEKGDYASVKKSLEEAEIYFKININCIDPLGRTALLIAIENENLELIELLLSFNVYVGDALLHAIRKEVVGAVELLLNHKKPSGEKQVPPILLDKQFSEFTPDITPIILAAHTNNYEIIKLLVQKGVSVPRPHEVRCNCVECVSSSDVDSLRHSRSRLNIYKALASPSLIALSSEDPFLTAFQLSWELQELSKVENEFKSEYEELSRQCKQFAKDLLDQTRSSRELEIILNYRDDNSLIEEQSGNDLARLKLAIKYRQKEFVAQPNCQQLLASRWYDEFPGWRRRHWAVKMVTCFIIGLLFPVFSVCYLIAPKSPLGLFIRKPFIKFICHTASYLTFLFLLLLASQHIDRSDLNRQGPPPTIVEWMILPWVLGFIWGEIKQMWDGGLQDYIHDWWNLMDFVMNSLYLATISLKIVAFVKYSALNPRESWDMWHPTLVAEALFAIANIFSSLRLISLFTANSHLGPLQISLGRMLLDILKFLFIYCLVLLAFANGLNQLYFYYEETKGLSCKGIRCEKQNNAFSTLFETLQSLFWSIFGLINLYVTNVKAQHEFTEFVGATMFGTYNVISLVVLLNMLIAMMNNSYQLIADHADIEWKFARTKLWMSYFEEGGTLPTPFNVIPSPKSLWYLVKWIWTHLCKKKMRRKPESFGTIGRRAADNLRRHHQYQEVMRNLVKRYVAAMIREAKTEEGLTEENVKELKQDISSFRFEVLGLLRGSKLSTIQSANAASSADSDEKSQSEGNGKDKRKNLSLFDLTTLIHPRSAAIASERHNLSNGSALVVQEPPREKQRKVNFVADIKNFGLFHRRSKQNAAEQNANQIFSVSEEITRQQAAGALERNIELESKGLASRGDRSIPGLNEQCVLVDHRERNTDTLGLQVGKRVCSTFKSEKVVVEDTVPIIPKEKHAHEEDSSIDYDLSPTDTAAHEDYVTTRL
# [13] = fluconazole-exposed Candida albicans growth modulators – fluorescence, retest, confirmation (AID 2467); assay type: functional, cell-based
# [14] = test system: Streptococcus sp. 'group A'; experiment: Streptococcus pyogenes SK(-)GAS viability under kanamycin – luminescence, BacTiterGlo, confirmation, counter-screen for streptokinase expression inhibitor project, dose response (AID 1900); assay type: functional, organism-based
# Streptococcus = experiment: GAS UMAA2166 growth inhibition – luminescence, BacTiterGlo, counter-screen for streptokinase expression inhibitor project, dose response (AID 1915); assay type: functional, organism-based;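 note: potency for reduction of bacterial viability or growth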
# Genome polyprotein = Genome polyprotein (dengue virus type 2, UniProt P29990); experiment: flavivirus cap methylation enzyme inhibition – biochemical, confirmation dose response, primary screen (AID 588689); assay type: functional
# Vero = experiment: viability of Vero cells under compound – cytotoxicity control for flavivirus capping enzyme inhibitors (AID 588742); assay type: functional; conditions: Chlorocebus sabaeus
# [15] = target: Dual specificity tyrosine-phosphorylation-regulated kinase 1A (Rattus norvegicus, UniProt Q63470); assay type: biochemical, Homo sapiens
# [16] = THP-1 cell cytotoxicity, dose response, cytotoxicity control for non-replicating M. tuberculosis project (AID 489025); assay type: functional
# cells = assay type: functional
# [17] = target: T6, Polyadenylate-binding protein 1 (Homo sapiens, UniProt P11940); experiment: MLLE binding blockers, Cy5 peptide tracer – biochemical, fluorescence polarization, Cy5-PAM2 peptide, secondary, miRNA deadenylation inhibitor project, dose response (AID 602260); assay type: functional; conditions: read-out: IC50_Mean
# [18] = target: T6, Polyadenylate-binding protein 1; experiment: MLLE domain peptide-binding blockers, IC50 – biochemical, fluorescence polarization, FITC-PAM2 peptide, dose response (AID 602259); assay type: functional; conditions: read-out: IC50_Mean
# Sequence of Peroxisome proliferator-activated receptor gamma/Nuclear receptor coactivator 3 (P37231 whole entry): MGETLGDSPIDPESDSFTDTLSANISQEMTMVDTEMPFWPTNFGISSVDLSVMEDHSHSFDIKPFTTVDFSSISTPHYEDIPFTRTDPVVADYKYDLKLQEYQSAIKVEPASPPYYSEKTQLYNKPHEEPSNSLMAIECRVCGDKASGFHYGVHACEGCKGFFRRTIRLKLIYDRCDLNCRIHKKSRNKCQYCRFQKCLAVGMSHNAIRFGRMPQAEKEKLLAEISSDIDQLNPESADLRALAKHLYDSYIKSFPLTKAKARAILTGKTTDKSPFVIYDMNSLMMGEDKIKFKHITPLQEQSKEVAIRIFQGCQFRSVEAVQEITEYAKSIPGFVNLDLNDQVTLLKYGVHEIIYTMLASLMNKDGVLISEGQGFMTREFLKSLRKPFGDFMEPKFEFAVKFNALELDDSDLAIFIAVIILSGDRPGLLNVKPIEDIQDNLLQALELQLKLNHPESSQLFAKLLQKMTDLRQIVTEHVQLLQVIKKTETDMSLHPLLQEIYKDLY
# Sequence of Peroxisome proliferator-activated receptor gamma/Nuclear receptor coactivator 3 (Q9Y6Q9 whole entry, further chain): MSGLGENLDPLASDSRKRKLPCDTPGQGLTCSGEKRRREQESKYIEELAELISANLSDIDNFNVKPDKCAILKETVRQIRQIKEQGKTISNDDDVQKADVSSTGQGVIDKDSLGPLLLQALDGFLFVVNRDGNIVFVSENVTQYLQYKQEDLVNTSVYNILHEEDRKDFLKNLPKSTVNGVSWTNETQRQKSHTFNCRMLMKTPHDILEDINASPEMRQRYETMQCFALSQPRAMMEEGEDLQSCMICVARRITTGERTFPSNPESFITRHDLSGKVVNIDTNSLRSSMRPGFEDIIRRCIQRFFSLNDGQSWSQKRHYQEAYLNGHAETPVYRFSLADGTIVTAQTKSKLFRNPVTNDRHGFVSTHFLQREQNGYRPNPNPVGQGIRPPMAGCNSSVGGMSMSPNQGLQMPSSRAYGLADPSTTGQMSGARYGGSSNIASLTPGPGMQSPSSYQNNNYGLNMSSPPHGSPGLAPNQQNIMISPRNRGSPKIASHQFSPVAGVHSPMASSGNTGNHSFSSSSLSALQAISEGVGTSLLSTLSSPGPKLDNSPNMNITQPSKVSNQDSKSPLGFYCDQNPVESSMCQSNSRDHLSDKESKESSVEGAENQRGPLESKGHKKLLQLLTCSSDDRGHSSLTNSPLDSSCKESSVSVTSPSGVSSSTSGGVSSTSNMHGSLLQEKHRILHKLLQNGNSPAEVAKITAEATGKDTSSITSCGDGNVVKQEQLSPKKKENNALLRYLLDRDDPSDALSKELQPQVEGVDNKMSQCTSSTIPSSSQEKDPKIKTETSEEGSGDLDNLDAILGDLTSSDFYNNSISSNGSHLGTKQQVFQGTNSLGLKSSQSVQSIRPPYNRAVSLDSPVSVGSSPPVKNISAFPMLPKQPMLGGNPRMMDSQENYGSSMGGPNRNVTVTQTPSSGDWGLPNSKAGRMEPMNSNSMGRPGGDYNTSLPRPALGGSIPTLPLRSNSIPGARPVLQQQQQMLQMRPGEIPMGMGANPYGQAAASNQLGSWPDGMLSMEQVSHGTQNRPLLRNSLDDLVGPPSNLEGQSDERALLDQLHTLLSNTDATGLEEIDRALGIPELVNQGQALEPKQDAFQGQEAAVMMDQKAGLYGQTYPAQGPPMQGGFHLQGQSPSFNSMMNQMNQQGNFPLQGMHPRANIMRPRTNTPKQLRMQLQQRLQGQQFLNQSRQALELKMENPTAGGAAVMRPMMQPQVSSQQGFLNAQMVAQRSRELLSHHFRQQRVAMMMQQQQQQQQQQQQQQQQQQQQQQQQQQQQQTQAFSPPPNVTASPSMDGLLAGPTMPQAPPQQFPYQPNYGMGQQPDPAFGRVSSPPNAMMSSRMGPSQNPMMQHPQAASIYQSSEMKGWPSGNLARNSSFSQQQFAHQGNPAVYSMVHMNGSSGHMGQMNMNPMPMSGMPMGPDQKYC
# Sequence of Peroxisome proliferator-activated receptor gamma/Nuclear receptor coactivator 2 (P37231 whole entry): as the sequence (P37231 whole entry) above
# Sequence of Peroxisome proliferator-activated receptor gamma/Nuclear receptor coactivator 2 (Q15596 whole entry, further chain): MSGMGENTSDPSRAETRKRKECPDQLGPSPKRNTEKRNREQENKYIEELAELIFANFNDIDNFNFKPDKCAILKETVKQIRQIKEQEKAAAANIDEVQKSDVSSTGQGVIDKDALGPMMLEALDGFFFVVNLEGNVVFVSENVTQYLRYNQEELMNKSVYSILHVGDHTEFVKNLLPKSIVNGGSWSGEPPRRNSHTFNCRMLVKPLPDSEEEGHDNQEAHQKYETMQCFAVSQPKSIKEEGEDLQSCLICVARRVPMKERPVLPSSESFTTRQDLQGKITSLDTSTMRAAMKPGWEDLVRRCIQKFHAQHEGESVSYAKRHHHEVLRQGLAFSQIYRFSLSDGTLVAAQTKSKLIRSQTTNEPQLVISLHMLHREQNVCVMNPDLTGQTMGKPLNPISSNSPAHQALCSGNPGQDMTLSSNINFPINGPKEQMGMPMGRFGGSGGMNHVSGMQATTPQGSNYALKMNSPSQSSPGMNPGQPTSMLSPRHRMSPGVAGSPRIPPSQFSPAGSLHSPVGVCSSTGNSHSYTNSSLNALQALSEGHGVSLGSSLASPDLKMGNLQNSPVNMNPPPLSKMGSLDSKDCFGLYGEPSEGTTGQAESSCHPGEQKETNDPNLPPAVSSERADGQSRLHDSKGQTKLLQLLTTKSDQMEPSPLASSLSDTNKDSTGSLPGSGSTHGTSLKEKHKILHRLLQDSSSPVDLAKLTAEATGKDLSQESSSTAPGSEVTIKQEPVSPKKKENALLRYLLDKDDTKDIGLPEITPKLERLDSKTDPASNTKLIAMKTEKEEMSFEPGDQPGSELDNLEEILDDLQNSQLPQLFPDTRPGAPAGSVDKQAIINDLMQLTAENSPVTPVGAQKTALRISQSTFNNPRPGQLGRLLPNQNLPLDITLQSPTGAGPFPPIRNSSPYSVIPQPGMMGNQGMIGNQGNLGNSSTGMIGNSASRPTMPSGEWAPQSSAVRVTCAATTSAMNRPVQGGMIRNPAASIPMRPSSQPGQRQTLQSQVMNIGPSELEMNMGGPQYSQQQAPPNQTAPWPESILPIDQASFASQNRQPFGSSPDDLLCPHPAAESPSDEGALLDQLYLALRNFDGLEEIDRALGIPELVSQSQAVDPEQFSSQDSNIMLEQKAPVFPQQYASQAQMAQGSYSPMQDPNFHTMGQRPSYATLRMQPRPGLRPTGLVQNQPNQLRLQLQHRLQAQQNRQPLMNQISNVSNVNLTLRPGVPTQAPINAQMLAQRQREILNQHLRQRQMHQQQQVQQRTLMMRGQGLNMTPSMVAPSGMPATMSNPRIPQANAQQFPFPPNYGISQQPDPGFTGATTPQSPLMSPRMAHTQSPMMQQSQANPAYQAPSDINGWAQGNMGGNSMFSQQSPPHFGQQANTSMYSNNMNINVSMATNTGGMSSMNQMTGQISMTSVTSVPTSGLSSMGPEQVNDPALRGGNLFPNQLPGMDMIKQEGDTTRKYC
# Sequence of Beta-galactosidase (Q8VNN2 whole entry): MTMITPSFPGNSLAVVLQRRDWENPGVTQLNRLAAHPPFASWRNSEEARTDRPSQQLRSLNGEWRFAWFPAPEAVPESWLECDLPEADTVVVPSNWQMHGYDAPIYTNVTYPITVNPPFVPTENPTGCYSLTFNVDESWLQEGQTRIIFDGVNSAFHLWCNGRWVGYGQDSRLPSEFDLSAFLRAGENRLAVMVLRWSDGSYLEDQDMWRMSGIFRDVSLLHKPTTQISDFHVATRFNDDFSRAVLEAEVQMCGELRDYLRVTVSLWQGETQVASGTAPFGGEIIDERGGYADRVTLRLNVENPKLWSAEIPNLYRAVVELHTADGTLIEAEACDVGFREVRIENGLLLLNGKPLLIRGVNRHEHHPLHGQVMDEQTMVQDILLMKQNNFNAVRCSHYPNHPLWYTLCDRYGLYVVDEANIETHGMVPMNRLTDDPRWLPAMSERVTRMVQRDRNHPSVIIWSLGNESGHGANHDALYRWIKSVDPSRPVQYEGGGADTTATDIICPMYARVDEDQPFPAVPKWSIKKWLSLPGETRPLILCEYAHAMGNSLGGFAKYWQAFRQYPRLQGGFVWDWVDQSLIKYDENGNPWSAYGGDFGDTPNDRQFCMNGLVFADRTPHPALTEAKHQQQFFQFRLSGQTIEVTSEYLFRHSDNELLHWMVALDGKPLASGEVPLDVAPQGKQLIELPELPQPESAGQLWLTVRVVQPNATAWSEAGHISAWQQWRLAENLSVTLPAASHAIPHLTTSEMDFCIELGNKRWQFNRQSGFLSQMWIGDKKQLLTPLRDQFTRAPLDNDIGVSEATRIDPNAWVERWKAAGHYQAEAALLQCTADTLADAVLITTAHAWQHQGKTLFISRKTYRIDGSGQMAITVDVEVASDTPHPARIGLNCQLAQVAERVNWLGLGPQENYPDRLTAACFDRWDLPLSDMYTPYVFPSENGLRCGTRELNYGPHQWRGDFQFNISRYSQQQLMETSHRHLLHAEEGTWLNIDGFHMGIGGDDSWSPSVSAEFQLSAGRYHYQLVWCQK
compound,measurement,setting,value
N#CCCN1CCN(C(=S)c2ccc(-c3ccc(Cl)cc3)o2)CC1,EC50,[1],> 79.4 µM (inactive)
same,EC50,[2],> 79.4 µM (not active)
same,EC50,[3],> 79.4 µM (not active)
C[C@H](NC(=O)OC(C)(C)C)c1nnc(SCC(=O)c2ccc(Cl)cc2)o1,IC50,[4],1.91 µM (active)
CC(NC(=O)COc1ccccc1)C(=O)OCC(=O)c1cc2ccccc2o1 (stereo not given),IC50,[5],13.8 µM (active)
same,EC50,[6],> 300 µM (not active)
same,EC50,Beta-galactosidase,> 40 µM (inactive)
same,EC50,[7],> 300 µM (not active)
CC1=C(n2nnc([N+](=O)[O-])n2)C(c2cccnc2)C(C#N)=C(N)O1 (stereo not given),EC50,[8],0.209 µM (active)
same,EC50,[9],> 60 µM (inconclusive)
same,IC50,[10],65 µM (inactive)
O=C(CCc1ccccc1)NNC(=S)NC(=O)c1ccc(Cl)cc1,EC50,[11],> 150 µM (inconclusive)
same,EC50,[12],5.31 µM (active)
same,EC50,[13],2.16 µM (active)
same,EC50,[14],0.335 µM (active)
same,EC50,Streptococcus,6.45 µM (active)
O=c1cc(-c2ccccc2)oc2cc(O)c(O)c(O)c12 [BAICALEIN],IC50,Genome polyprotein,35.1 µM (active)
same,CC50,Vero,> 40 µM (active)
same,AC50,[15],14.5 µM (active)
CC(=O)Nc1ccc(/C=C/c2nc3ccccc3o2)cc1,AC50,[15],1.2 µM (active)
COc1ccc(-n2c(=S)[nH]c3cc(C(=O)NCCCN4CCOCC4)ccc3c2=O)cc1,IC50,[4],10.3 µM (active)
CCC(OC(=O)c1cc2sccc2n1C)C(=O)NCc1ccco1 (stereo not given),EC50,[1],> 79.4 µM (inactive)
same,EC50,[2],> 26.5 µM (not active)
same,EC50,[3],> 79.4 µM (not active)
CCn1c(=O)cc(SCC(=O)N2CCN(c3ccccc3OC)CC2)c2ccccc21,EC50,[1],> 79.4 µM (inactive)
same,EC50,[2],> 79.4 µM (not active)
same,EC50,[3],> 79.4 µM (not active)
Cc1cc(Cl)cc(C)c1OCCCCn1ccnc1,CC50,[16],38.2 µM (active)
same,EC50,[12],3.76 µM (active)
same,IC50,cells,15.5 µM (active)
NC(=S)c1ccc(C(N)=S)o1,IC50,[17],> 66 µM (inactive)
same,IC50,[18],> 66 µM (inactive)
same,AC50,[15],14.3 µM (active)
O=C(C[n+]1ccc(-c2cc(C(=O)Nc3cccc(C(F)(F)F)c3)c3ccccc3n2)cc1)c1cccc([N+](=O)[O-])c1,IC50,[5],26 µM (not active)
same,EC50,Beta-galactosidase,> 40 µM (inactive)
